According to ChEMBL document CHEMBL4265944, “Novel amide derivatives of 1,3-dimethyl-2,6-dioxopurin-7-yl-alkylcarboxylic acids as multifunctional TRPA1 antagonists and PDE4/7 inhibitors: A new approach for the treatment of pain” (Eur J Med Chem, 2018):
Active and inactive are the calls of the source. The calls are words filed in the database; no cut-off is given here.

What was measured:
[1] = biological target: Transient receptor potential cation channel subfamily A member 1 (Homo sapiens) (UniProt O75762); test: Antagonist activity at human TRPA1 expressed in HEK293 cells assessed as decrease in flufenamic acid-evoked increase in intracellular calcium level at 100 uM measured for 180 secs with 1 sec interval by Fluo4-AM dye-based fluorescence assay relative to control; assay type: cell-based
Sequence of Transient receptor potential cation channel subfamily A member 1 (Homo sapiens) (O75762 whole entry): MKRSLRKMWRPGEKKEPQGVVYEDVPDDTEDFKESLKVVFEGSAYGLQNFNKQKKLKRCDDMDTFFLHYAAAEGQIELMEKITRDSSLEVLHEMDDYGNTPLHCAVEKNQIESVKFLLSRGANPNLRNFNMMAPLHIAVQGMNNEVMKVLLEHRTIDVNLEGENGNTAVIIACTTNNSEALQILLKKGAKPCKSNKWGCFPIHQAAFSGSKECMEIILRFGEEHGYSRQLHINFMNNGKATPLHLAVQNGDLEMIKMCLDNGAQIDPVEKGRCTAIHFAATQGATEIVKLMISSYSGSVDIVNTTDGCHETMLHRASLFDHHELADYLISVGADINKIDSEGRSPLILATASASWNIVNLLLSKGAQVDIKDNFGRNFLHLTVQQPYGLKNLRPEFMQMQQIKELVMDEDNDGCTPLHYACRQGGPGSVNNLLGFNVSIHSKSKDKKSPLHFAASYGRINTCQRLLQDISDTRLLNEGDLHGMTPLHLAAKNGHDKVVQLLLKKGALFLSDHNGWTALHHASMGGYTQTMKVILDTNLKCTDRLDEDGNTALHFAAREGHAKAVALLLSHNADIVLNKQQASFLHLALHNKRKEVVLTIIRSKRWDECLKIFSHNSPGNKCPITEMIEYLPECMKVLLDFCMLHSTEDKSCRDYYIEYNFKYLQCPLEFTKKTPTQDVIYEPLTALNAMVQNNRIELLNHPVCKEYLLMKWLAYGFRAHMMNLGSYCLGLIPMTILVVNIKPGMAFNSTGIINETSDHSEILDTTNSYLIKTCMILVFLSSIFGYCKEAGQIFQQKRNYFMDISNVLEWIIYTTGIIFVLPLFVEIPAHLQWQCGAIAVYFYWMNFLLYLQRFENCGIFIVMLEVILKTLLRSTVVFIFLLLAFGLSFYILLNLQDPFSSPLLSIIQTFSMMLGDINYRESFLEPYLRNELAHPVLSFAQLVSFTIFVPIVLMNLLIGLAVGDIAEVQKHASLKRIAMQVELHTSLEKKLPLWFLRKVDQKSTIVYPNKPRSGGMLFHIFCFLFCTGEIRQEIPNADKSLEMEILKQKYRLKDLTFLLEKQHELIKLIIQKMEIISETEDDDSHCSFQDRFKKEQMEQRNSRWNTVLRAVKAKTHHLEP

[2] = biological target: 3',5'-cyclic-AMP phosphodiesterase 4B (Homo sapiens, UniProt Q07343); test: Inhibition of recombinant human PDE4B using cAMP as substrate after 10 mins by PDE-Glo Phosphodiesterase Assay
Sequence of 3',5'-cyclic-AMP phosphodiesterase 4B (Q07343 whole entry): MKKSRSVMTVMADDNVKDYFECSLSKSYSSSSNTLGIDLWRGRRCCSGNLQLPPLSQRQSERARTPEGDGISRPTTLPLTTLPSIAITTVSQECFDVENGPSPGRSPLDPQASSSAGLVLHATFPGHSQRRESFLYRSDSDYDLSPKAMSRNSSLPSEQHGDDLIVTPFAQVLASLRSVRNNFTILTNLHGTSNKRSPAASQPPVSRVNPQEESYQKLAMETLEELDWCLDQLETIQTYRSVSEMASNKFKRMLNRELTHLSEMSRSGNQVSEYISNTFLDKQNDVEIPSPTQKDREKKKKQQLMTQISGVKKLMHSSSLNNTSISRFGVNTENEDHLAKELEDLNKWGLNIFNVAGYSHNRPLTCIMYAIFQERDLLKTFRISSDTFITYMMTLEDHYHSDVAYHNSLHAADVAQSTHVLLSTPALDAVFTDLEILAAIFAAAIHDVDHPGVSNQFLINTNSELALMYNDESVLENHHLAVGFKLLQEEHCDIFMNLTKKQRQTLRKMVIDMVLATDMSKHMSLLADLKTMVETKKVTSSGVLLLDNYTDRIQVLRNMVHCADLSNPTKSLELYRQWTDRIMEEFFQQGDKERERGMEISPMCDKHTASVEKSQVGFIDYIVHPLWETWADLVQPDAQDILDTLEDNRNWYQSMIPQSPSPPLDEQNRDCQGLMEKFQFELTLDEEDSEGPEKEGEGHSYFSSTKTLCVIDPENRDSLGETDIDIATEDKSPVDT

[3] = biological target: High affinity 3',5'-cyclic-AMP phosphodiesterase 7A (Homo sapiens, UniProt Q13946); test: Inhibition of recombinant human PDE7A using cAMP as substrate after 10 mins by PDE-Glo Phosphodiesterase Assay
Sequence of High affinity 3',5'-cyclic-AMP phosphodiesterase 7A (Q13946 whole entry): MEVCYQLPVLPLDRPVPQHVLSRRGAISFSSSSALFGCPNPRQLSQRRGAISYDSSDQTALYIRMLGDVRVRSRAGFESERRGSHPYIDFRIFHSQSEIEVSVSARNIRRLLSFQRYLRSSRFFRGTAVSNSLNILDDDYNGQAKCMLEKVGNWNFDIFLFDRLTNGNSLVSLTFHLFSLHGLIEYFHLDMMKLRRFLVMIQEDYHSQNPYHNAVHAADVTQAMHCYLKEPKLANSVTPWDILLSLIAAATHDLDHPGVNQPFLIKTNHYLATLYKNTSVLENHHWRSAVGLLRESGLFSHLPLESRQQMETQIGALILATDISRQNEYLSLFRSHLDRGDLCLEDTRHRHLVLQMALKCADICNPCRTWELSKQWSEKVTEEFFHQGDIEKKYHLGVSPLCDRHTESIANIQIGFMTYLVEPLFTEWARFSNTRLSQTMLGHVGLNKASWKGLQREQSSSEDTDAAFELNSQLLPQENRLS

Rattus norvegicus [4] = test: Anti-inflammatory activity in Wistar rat assessed as inhibition of carrageenan-induced paw edema at 20 mg/kg, ip measured at 1 hr post dose relative to control; assay type: functional
Rattus norvegicus [5] = test: Anti-inflammatory activity in Wistar rat assessed as inhibition of carrageenan-induced paw edema at 20 mg/kg, ip measured at 2 hrs post dose relative to control; assay type: functional
Rattus norvegicus [6] = test: Anti-inflammatory activity in Wistar rat assessed as inhibition of carrageenan-induced paw edema at 20 mg/kg, ip measured at 3 hrs post dose relative to control; assay type: functional
Rattus norvegicus [7] = test: Antiallodynic activity in Wistar rat assessed as reduction in oxaliplatin-induced neuropathic pain in early phase by measuring paw withdrawal force at 5 to 10 mg/kg, ip measured after 60 mins by Von Frey test; assay type: functional, organism-based
Rattus norvegicus [8] = test: Antiallodynic activity in Wistar rat assessed as reduction in oxaliplatin-induced neuropathic pain in late phase by measuring paw withdrawal force at 5 to 10 mg/kg, ip measured after 60 mins by Von Frey test; assay type: functional, organism-based
[9] = biological target: Transient receptor potential cation channel subfamily A member 1 (Homo sapiens) (UniProt O75762); test: Antagonist activity at human TRPA1 expressed in HEK293 cells assessed as decrease in flufenamic acid-evoked increase in intracellular calcium level at 10 uM measured for 180 secs with 1 sec interval by Fluo4-AM dye-based fluorescence assay relative to control; assay type: cell-based
[10] = biological target: Transient receptor potential cation channel subfamily A member 1 (Homo sapiens) (UniProt O75762); test: Antagonist activity at human TRPA1 expressed in HEK293 cells assessed as decrease in flufenamic acid-evoked increase in intracellular calcium level at 1 uM measured for 180 secs with 1 sec interval by Fluo4-AM dye-based fluorescence assay relative to control; assay type: cell-based
[11] = Plasma concentration in Wistar rat model of LPS-induced inflammation at 50 mg/kg, ip measured at 1 hr post dose by HPLC method; assay type: ADME, organism-based
[12] = Plasma concentration in Wistar rat model of LPS-induced inflammation at 50 mg/kg, ip measured at 1.5 hrs post dose by HPLC method; assay type: ADME, organism-based
[13] = Plasma concentration in Wistar rat model of LPS-induced inflammation at 50 mg/kg, ip measured at 2 hrs post dose by HPLC method; assay type: ADME, organism-based
Mus musculus [14] = test: Antiinflammatory activity in formalin-induced nociception Swiss CD-1 mouse model assessed as time spent on licking or biting formalin injected right hind paw during neurogenic phase at 10 mg/kg, ip measured during phase 1 (reference value: 33 +/- 1.45 sec); assay type: functional
Mus musculus [15] = test: Antiinflammatory activity in formalin-induced nociception Swiss CD-1 mouse model assessed as time spent on licking or biting formalin injected right hind paw during neurogenic phase at 5 mg/kg, ip measured during phase 1 (reference value: 33 +/- 1.45 sec); assay type: functional
Mus musculus [16] = test: Antiinflammatory activity in formalin-induced nociception Swiss CD-1 mouse model assessed as time spent on licking or biting formalin injected right hind paw during neurogenic phase at 2.5 mg/kg, ip measured during phase 1 (reference value: 33 +/- 1.45 sec); assay type: functional
Mus musculus [17] = test: Antiinflammatory activity in formalin-induced nociception Swiss CD-1 mouse model assessed as time spent on licking or biting formalin injected right hind paw during […] phase at 10 mg/kg, ip measured during phase 2 (reference value: 83.63 +/- 12.98 sec); assay type: functional
Mus musculus [18] = test: Antiinflammatory activity in formalin-induced nociception Swiss CD-1 mouse model assessed as time spent on licking or biting formalin injected right hind paw […] at 5 mg/kg, ip measured during phase 2 (reference value: 83.63 +/- 12.98 sec); assay type: functional
Mus musculus [19] = test: Antiinflammatory activity in formalin-induced nociception Swiss CD-1 mouse model assessed as time spent on licking or biting formalin injected right hind paw during […] phase at 2.5 mg/kg, ip measured during phase 2 (reference value: 83.63 +/- 12.98 sec); assay type: functional
Mus musculus [20] = test: Antiinflammatory activity in formalin-induced nociception ip dosed Swiss CD-1 mouse model assessed as time spent on licking or biting formalin injected right hind paw […] measured during phase 2; assay type: functional; details: Swiss CD-1, ip
Mus musculus [21] = test: Potency index, ratio of ED50 for HC-030031 to test compound ED50 for formalin-induced nociception ip dosed Swiss CD-1 mouse model assessed as time spent on licking or biting formalin injected right hind paw […] measured during phase 2; assay type: functional
Rattus norvegicus [22] = test: Antiallodynic activity in Wistar rat assessed as reduction in oxaliplatin-induced neuropathic pain in late phase by measuring paw withdrawal force at 10 mg/kg, ip measured after 60 mins by Von Frey test; assay type: functional, organism-based
Rattus norvegicus [23] = test: Antiallodynic activity in Wistar rat assessed as reduction in oxaliplatin-induced neuropathic pain in early phase by measuring paw withdrawal force at 10 mg/kg, ip measured after 60 mins by Von Frey test; assay type: functional, organism-based
Rattus norvegicus [24] = test: Antiallodynic activity in Wistar rat assessed as reduction in oxaliplatin-induced neuropathic pain in late phase by measuring paw withdrawal latency time at 1 mg/kg, ip measured after 60 secs by cold plate test; assay type: functional, organism-based
Rattus norvegicus [25] = test: Antiinflammatory activity in Wistar rat assessed as inhibition of LPS-induced TNF-alpha level at 50 mg/kg, ip measured at 1 to 2 hrs post dose by ELISA relative to control; assay type: functional
Mus musculus [26] = test: Antiinflammatory activity in formalin-induced nociception Swiss CD-1 mouse model assessed as time spent on licking or biting formalin injected right hind paw during neurogenic phase at 10 mg/kg, ip measured during phase 1 (reference value: 97 +/- 6.86 sec); assay type: functional
Mus musculus [27] = test: Antiinflammatory activity in formalin-induced nociception Swiss CD-1 mouse model assessed as time spent on licking or biting formalin injected right hind paw during neurogenic phase at 5 mg/kg, ip measured during phase 1 (reference value: 97 +/- 6.86 sec); assay type: functional
Mus musculus [28] = test: Antiinflammatory activity in formalin-induced nociception Swiss CD-1 mouse model assessed as time spent on licking or biting formalin injected right hind paw during neurogenic phase at 2.5 mg/kg, ip measured during phase 1 (reference value: 97 +/- 6.86 sec); assay type: functional
Mus musculus [29] = test: Antiinflammatory activity in formalin-induced nociception Swiss CD-1 mouse model assessed as time spent on licking or biting formalin injected right hind paw during neurogenic phase at 10 mg/kg, ip measured during phase 2 (reference value: 158.3 +/- 12.34 sec); assay type: functional
Mus musculus [30] = test: Antiinflammatory activity in formalin-induced nociception Swiss CD-1 mouse model assessed as time spent on licking or biting formalin injected right hind paw during neurogenic phase at 5 mg/kg, ip measured during phase 2 (reference value: 158.3 +/- 12.34 sec); assay type: functional
Mus musculus [31] = test: Antiinflammatory activity in formalin-induced nociception Swiss CD-1 mouse model assessed as time spent on licking or biting formalin injected right hind paw during neurogenic phase at 2.5 mg/kg, ip measured during phase 2 (reference value: 158.3 +/- 12.34 sec); assay type: functional
Rattus norvegicus [32] = test: Anti-inflammatory activity in Wistar rat assessed as inhibition of carrageenan-induced paw edema at 40 mg/kg, ip measured at 1 hr post dose relative to control; assay type: functional
Rattus norvegicus [33] = test: Anti-inflammatory activity in Wistar rat assessed as inhibition of carrageenan-induced paw edema at 40 mg/kg, ip measured at 2 hrs post dose relative to control; assay type: functional
Rattus norvegicus [34] = test: Anti-inflammatory activity in Wistar rat assessed as inhibition of carrageenan-induced paw edema at 40 mg/kg, ip measured at 3 hrs post dose relative to control; assay type: functional
Rattus norvegicus [35] = test: Anti-inflammatory activity in Wistar rat assessed as inhibition of carrageenan-induced paw edema at 100 mg/kg, ip measured at 1 hr post dose relative to control; assay type: functional
Rattus norvegicus [36] = test: Anti-inflammatory activity in Wistar rat assessed as inhibition of carrageenan-induced paw edema at 100 mg/kg, ip measured at 2 hrs post dose relative to control; assay type: functional
Rattus norvegicus [37] = test: Anti-inflammatory activity in Wistar rat assessed as inhibition of carrageenan-induced paw edema at 100 mg/kg, ip measured at 3 hrs post dose relative to control; assay type: functional

Structure (SMILES)	inhibition [1] [%]	IC50 [2] [µM]	IC50 [3] [µM]	also measured
COc1nc2c(c(=O)n(C)c(=O)n2C)n1CCCC(=O)Nc1ccc(C(C)C)cc1	18	> 200	> 200	–
COc1nc2c(c(=O)n(C)c(=O)n2C)n1CC(=O)NCc1ccccc1Cl	3	> 200	> 200	–
CCOc1nc2c(c(=O)n(C)c(=O)n2C)n1CC(=O)Nc1cccc(Cl)c1	5	> 200	> 200	–
CC(C(=O)O)c1cccc(C(=O)c2ccccc2)c1 (configuration not stated) [KETOPROFEN]	–	–	–	inhibition in vivo at 20 mg/kg (Rattus norvegicus [4]): 23.3%; inhibition in vivo at 20 mg/kg (Rattus norvegicus [5]): 54.2%; inhibition in vivo at 20 mg/kg (Rattus norvegicus [6]): 66%
CC(C)C[C@H](CN)CC(=O)O	–	–	–	Activity (Rattus norvegicus [7]): Active; Activity (Rattus norvegicus [8]): Active
CCOc1nc2c(c(=O)n(C)c(=O)n2C)n1CC(=O)Nc1ccc(C(C)C)cc1	20	> 200	> 200	–
CCCOc1nc2c(c(=O)n(C)c(=O)n2C)n1CCCC(=O)Nc1cc(C(C)(C)C)ccc1O	38	14.7	41.1	inhibition [9]: 1%; inhibition [10]: 3%
CCOc1nc2c(c(=O)n(C)c(=O)n2C)n1CC(=O)Nc1ccc(Cl)cc1	7	> 200	> 200	–
CCCOc1nc2c(c(=O)n(C)c(=O)n2C)n1CCCC(=O)Nc1ccc(C(C)CC)cc1 (configuration not stated)	5	16.8	9.06	–
CCOc1nc2c(c(=O)n(C)c(=O)n2C)n1CC(=O)Nc1ccc(C(C)(C)C)cc1	59	> 200	> 200	inhibition [9]: 47%; inhibition [10]: 10%; concentration at 1 h [11]: 3750 nM; concentration at 1.5 h [12]: 2590 nM; concentration at 2 h [13]: 2250 nM; Time (Mus musculus [14]): 32.17 s; Time (Mus musculus [15]): 30.83 s; Time (Mus musculus [16]): 32 s; Time (Mus musculus [17]): 9.67 s; Time (Mus musculus [18]): 16.33 s; Time (Mus musculus [19]): 46 s; ED50 (Mus musculus [20]): 2.57 mg/kg; Ratio ED50 (Mus musculus [21]): 10 - 13; inhibition in vivo at 20 mg/kg (Rattus norvegicus [4]): 60.5%; inhibition in vivo at 20 mg/kg (Rattus norvegicus [5]): 54.3%; inhibition in vivo at 20 mg/kg (Rattus norvegicus [6]): 50.1%; Activity (Rattus norvegicus [22]): Active; Activity (Rattus norvegicus [23]): Active; Activity (Rattus norvegicus [24]): Active; inhibition (Rattus norvegicus [25]): inactive
COc1nc2c(c(=O)n(C)c(=O)n2C)n1CC(=O)Nc1cccc(Cl)c1	2	> 200	> 200	–
CCCOc1nc2c(c(=O)n(C)c(=O)n2C)n1CCCC(=O)Nc1ccc(C(C)C)cc1	11	17.8	37.6	–
COc1nc2c(c(=O)n(C)c(=O)n2C)n1CCCC(=O)NCc1ccccc1Cl	16	> 200	> 200	–
CCCCOc1nc2c(c(=O)n(C)c(=O)n2C)n1CCCC(=O)Nc1ccc(C(C)CC)cc1 (configuration not stated)	14	110	20	–
CCOc1nc2c(c(=O)n(C)c(=O)n2C)n1CC(=O)NCc1ccccc1Cl	7	> 200	> 200	–
CC(C)c1ccc(NC(=O)Cn2cnc3c2c(=O)n(C)c(=O)n3C)cc1	43	> 200	> 200	inhibition [9]: 13%; inhibition [10]: 0%; Time (Mus musculus [26]): 71 s; Time (Mus musculus [27]): 73.83 s; Time (Mus musculus [28]): 82.83 s; Time (Mus musculus [29]): 13.9 s; Time (Mus musculus [30]): 76.45 s; Time (Mus musculus [31]): 111.33 s; ED50 (Mus musculus [20]): 33.8 mg/kg; inhibition in vivo at 20 mg/kg (Rattus norvegicus [4]): 4.7%; inhibition in vivo at 20 mg/kg (Rattus norvegicus [5]): 0.02%; inhibition in vivo at 20 mg/kg (Rattus norvegicus [6]): 10%; inhibition in vivo at 40 mg/kg (Rattus norvegicus [32]): 12.1%; inhibition in vivo at 40 mg/kg (Rattus norvegicus [33]): 23.5%; inhibition in vivo at 40 mg/kg (Rattus norvegicus [34]): 25.6%; inhibition in vivo at 100 mg/kg (Rattus norvegicus [35]): 24.1%; inhibition in vivo at 100 mg/kg (Rattus norvegicus [36]): 48.2%; inhibition in vivo at 100 mg/kg (Rattus norvegicus [37]): 48.3%
COc1nc2c(c(=O)n(C)c(=O)n2C)n1CC(=O)Nc1ccc(C(C)C)cc1	39	> 200	> 200	inhibition [9]: 13%; inhibition [10]: 4%
CCOc1nc2c(c(=O)n(C)c(=O)n2C)n1CCCC(=O)Nc1ccc(C(C)C)cc1	10	32.3	96.3	–
COc1nc2c(c(=O)n(C)c(=O)n2C)n1CCCC(=O)Nc1ccc(C(C)(C)C)cc1	13	87.5	19.8	–
COc1nc2c(c(=O)n(C)c(=O)n2C)n1CCCC(=O)Nc1ccc(Cl)cc1	15	> 200	> 200	–
CCOc1nc2c(c(=O)n(C)c(=O)n2C)n1CCCC(=O)Nc1ccc(C(C)(C)C)cc1	0	42.5	54.3	–
COc1nc2c(c(=O)n(C)c(=O)n2C)n1CCCC(=O)Nc1cccc(Cl)c1	9	> 200	> 200	–
CCCOc1nc2c(c(=O)n(C)c(=O)n2C)n1CCCC(=O)Nc1ccc(C(C)(C)C)cc1	52	21.1	7.76	inhibition [9]: 5%; inhibition [10]: 5%
